Measured values published in patent publication EP4361137A1, “PRUNE1 INHIBITORS AND THERAPEUTIC USE THEREOF” (CEINGE Biotecnologie Avanzate Franco Salvatore s.c. a r.l., priority 2022, dated 2024).

How the values were obtained:
human and murine Prune1 = assay: qPCR of PRUNE1 mRNA in MMTV-Prune1/Wnt1 cells; type: cell-based; design: dose or concentration left out as unconfirmed
Experimental: (§1) D425.MED and MMTV-Prune1/Wnt1 cells were plated and treated with increasing concentrations of LEO-AA7.5(S)T for 24 hours. Water-treated cells were used as negative control for the experiments.
(§2) RNA samples were extracted using TRIzol RNA Isolation Reagent (15596026, Invitrogen), according to the manufacturer instructions. Reverse transcription was performed with 5× All-In-One RT MasterMix (g592; ABM), according to the manufacturer instructions. The reverse transcription products (cDNA) were amplified by qRT-PCR using an RT-PCR system (7900; Applied Biosystems, Foster City, CA, USA). The cDNA preparation was through the cycling method, by incubating the complete reaction mix as follows: cDNA reactions: (37 °C for 10 min and 60 °C for 15 min); Heat-inactivation: 95 °C for 3 min; Hold stage: 4 °C. The targets were detected with the SYBR green approach, using BrightGreen BlasTaq 2× PCR MasterMix (G895; ABM). Human ACTB was used as the housekeeping gene to normalize the quantification cycle (Cq) values of the other genes. […] Relative expression of the target genes was determined using the 2^-ΔΔCq method, as the fold increase compared with the controls. […]

human PRUNE1 = assay: qPCR of PRUNE1 mRNA in D425-MED cells; type: cell-based; conditions: 10 µM, 24 hours, relative to vehicle (2^-ΔΔCt)
Experimental: as §1, §2

MMTV-Prune1/Wnt1 cells = assay: Real-time cell migration analysis (cell index); type: cell-based, murine; conditions: 10 µM and 100 µM, dose dependent
Prune1 = molecular target: T1, Prune1 (Homo sapiens, UniProt Q86TP1); assay: Immunoblotting and densitometry of Prune1 in D425-MED cells; type: cell-based
T1 construct: endogenous in cells; host or cells: D425-MED cells
T1 sequence (Q86TP1 1-453): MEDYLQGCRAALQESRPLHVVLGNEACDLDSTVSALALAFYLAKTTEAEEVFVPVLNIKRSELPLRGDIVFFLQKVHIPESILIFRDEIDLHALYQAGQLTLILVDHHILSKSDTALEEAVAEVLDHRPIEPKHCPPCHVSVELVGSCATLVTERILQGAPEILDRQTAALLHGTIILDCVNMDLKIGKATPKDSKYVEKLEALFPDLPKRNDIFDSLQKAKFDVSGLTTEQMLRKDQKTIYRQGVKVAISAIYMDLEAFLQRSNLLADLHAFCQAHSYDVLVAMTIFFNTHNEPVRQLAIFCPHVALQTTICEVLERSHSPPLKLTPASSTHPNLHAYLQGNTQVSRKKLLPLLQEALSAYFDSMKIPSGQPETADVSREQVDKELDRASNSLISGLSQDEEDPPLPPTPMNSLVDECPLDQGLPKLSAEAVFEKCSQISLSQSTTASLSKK
Experimental: as §1
Cells for immunoblotting analysis were washed in cold PBS and lysed in cell lysis buffer [20 mM sodium phosphate (pH 7.4), 150 mM NaCl, 10% (v/v) glycerol, 1% (w/v) sodium deoxycholate, 1% (v/v) Triton X-100] supplemented with protease inhibitors (Roche). The resulting cell lysates were cleared by centrifugation at 16,200g for 10 min at room temperature, and the supernatants were re- moved and assayed for protein concentrations with the Protein Assay Dye Reagent (Bio-Rad). The cell lysates (30 µg) were resolved by SDS-polyacrylamide gel electrophoresis (SDS-PAGE) gels of different percentages, which depended on the molecular weights of the proteins of interest. The proteins were then electrophoretically transferred to polyvinylidene difluoride (PVDF) membranes (Millipore). After 1 hour in blocking solution with 5% (w/v) dry milk fat in PBS or 5% (w/v) BSA (Sigma-Aldrich) in tris-buffered saline [both of which contained 0.02% (v/v) Tween 20] […] The peak areas of the bands were measured on the densitometry plots, and the relative proportions (percentages) were calculated. […]

SMILES: COc1ccc(CNc2ncnc(N3CCC[C@H](CO)C3)n2)cc1.Cl [LEO-AA7.5(S)T, (S)-(1-(4-((4-methoxybenzyl)amino)-1,3,5-triazin-2-yl)piperidin-3-yl)methanol HCl salt]
- degradation of human and murine Prune transcript (human and murine Prune1): enhance the degradation
- endogenous Prune1 mRNA (human PRUNE1): 0.3 fold
- migration rate (MMTV-Prune1/Wnt1 cells): reduction
- dose effective on Prune1 target inhibition/degradation in vitro, lower than AA7.1 (Prune1; 10 µM vs 100 µM AA7.1): 10 fold
- Prune1 protein levels (Prune1; D425-Med cells, 10 µM, 24 hours, densitometry relative to vehicle): 0.6 fold
